Assay results published in the supplement of paper PMC10307832.

What was measured:
Assay in all cases: relative viability (nuclei count vs DMSO), 5 days (fraction); higher = more cells survive
NCI-H522 = test system: NCI-H522
How it was run: (§1)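 Each reported value is a median over duplicate plates. It expresses relative viability: treated-well nuclei count divided by vehicle-well nuclei count. Lung cancer cell lines in 1536-well plates were dosed by pin tool a day after seeding, alone with one drug or with a fixed anchor-drug dose plus five library-drug doses (not always all listed) in √10 steps, and nuclei were counted after 5 days.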

SK-LU-1 = test system: SK-LU-1
How it was run: as §1

A-427 = test system: A-427
How it was run: as §1

NCI-H1395 = test system: NCI-H1395
How it was run: as §1

NCI-H1755 = test system: NCI-H1755
How it was run: as §1

NCI-H23 = test system: NCI-H23
How it was run: as §1

HCC-827 = test system: HCC-827
How it was run: as §1

CAL-12T = test system: CAL-12T
How it was run: as §1

NCI-H1915 = test system: NCI-H1915
How it was run: as §1

NCI-H460 = test system: NCI-H460
How it was run: as §1

LCLC-103H = test system: LCLC-103H
How it was run: as §1

NCI-H2228 = test system: NCI-H2228
How it was run: as §1

SW 1573 = test system: SW 1573
How it was run: as §1

EMC-BAC-2 = test system: EMC-BAC-2
How it was run: as §1

NCI-H2009 = test system: NCI-H2009
How it was run: as §1

NCI-H1792 = test system: NCI-H1792
How it was run: as §1

NCI-H1437 = test system: NCI-H1437
How it was run: as §1

HARA = test system: HARA
How it was run: as §1

COR-L 105 = test system: COR-L 105
How it was run: as §1

NCI-H727 = test system: NCI-H727
How it was run: as §1

HOP-62 = test system: HOP-62
How it was run: as §1

HCC-366 = test system: HCC-366
How it was run: as §1

Compound: O=c1cc(-c2cccc3c2Sc2ccccc2S3)oc(N2CCOCC2)c1 + O=C(c1cc(Cc2n[nH]c(=O)c3ccccc23)ccc1F)N1CCN(C(=O)C2CC2)CC1 [Olaparib] (partner 8 µM)
- relative viability (NCI-H522; first compound 0.08 µM): 0.615
- relative viability (NCI-H522; first compound 0.253 µM): 0.621
- relative viability (NCI-H522; first compound 0.8 µM): 0.612
- relative viability (NCI-H522; first compound 2.53 µM): 0.723
- relative viability (NCI-H522; first compound 8 µM): 0.576
- relative viability (SK-LU-1; first compound 0.08 µM): 0.582
- relative viability (SK-LU-1; first compound 0.253 µM): 0.713
- relative viability (SK-LU-1; first compound 0.8 µM): 0.524
- relative viability (SK-LU-1; first compound 2.53 µM): 0.503
- relative viability (SK-LU-1; first compound 8 µM): 0.463
- relative viability (A-427; first compound 0.08 µM): 0.7
- relative viability (A-427; first compound 0.253 µM): 0.776
- relative viability (A-427; first compound 0.8 µM): 0.637
- relative viability (A-427; first compound 2.53 µM): 0.684
- relative viability (A-427; first compound 8 µM): 0.777
- relative viability (NCI-H1395; first compound 0.08 µM): 0.404
- relative viability (NCI-H1395; first compound 0.253 µM): 0.416
- relative viability (NCI-H1395; first compound 0.8 µM): 0.513
- relative viability (NCI-H1395; first compound 2.53 µM): 0.471
- relative viability (NCI-H1395; first compound 8 µM): 0.47
- relative viability (NCI-H1755; first compound 0.08 µM): 0.843
- relative viability (NCI-H1755; first compound 0.253 µM): 0.998
- relative viability (NCI-H1755; first compound 0.8 µM): 0.846
- relative viability (NCI-H1755; first compound 2.53 µM): 0.884
- relative viability (NCI-H1755; first compound 8 µM): 0.91
- relative viability (NCI-H23; first compound 0.08 µM): 0.313
- relative viability (NCI-H23; first compound 0.253 µM): 0.309
- relative viability (NCI-H23; first compound 0.8 µM): 0.24
- relative viability (NCI-H23; first compound 2.53 µM): 0.269
- relative viability (NCI-H23; first compound 8 µM): 0.268
- relative viability (HCC-827; first compound 0.08 µM): 0.621
- relative viability (HCC-827; first compound 0.253 µM): 0.716
- relative viability (HCC-827; first compound 0.8 µM): 0.677
- relative viability (HCC-827; first compound 2.53 µM): 0.588
- relative viability (HCC-827; first compound 8 µM): 0.768
- relative viability (CAL-12T; first compound 0.08 µM): 0.77
- relative viability (CAL-12T; first compound 0.253 µM): 0.738
- relative viability (CAL-12T; first compound 0.8 µM): 0.759
- relative viability (CAL-12T; first compound 2.53 µM): 0.731
- relative viability (CAL-12T; first compound 8 µM): 0.402
- relative viability (NCI-H1915; first compound 0.08 µM): 0.425
- relative viability (NCI-H1915; first compound 0.253 µM): 0.266
- relative viability (NCI-H1915; first compound 0.8 µM): 0.296
- relative viability (NCI-H1915; first compound 2.53 µM): 0.305
- relative viability (NCI-H1915; first compound 8 µM): 0.226
- relative viability (NCI-H460; first compound 0.08 µM): 0.513
- relative viability (NCI-H460; first compound 0.253 µM): 0.343
- relative viability (NCI-H460; first compound 0.8 µM): 0.454
- relative viability (NCI-H460; first compound 2.53 µM): 0.451
- relative viability (NCI-H460; first compound 8 µM): 0.542
- relative viability (LCLC-103H; first compound 0.08 µM): 0.765
- relative viability (LCLC-103H; first compound 0.253 µM): 0.776
- relative viability (LCLC-103H; first compound 0.8 µM): 0.873
- relative viability (LCLC-103H; first compound 2.53 µM): 0.736
- relative viability (LCLC-103H; first compound 8 µM): 0.71
- relative viability (NCI-H2228; first compound 0.08 µM): 0.691
- relative viability (NCI-H2228; first compound 0.253 µM): 0.869
- relative viability (NCI-H2228; first compound 0.8 µM): 0.799
- relative viability (NCI-H2228; first compound 2.53 µM): 0.83
- relative viability (NCI-H2228; first compound 8 µM): 0.733
- relative viability (SW 1573; first compound 0.08 µM): 0.513
- relative viability (SW 1573; first compound 0.253 µM): 0.574
- relative viability (SW 1573; first compound 0.8 µM): 0.613
- relative viability (SW 1573; first compound 2.53 µM): 0.487
- relative viability (SW 1573; first compound 8 µM): 0.44
- relative viability (EMC-BAC-2; first compound 0.08 µM): 0.523
- relative viability (EMC-BAC-2; first compound 0.253 µM): 0.568
- relative viability (EMC-BAC-2; first compound 0.8 µM): 0.518
- relative viability (EMC-BAC-2; first compound 2.53 µM): 0.571
- relative viability (EMC-BAC-2; first compound 8 µM): 0.514
- relative viability (NCI-H2009; first compound 0.08 µM): 0.746
- relative viability (NCI-H2009; first compound 0.253 µM): 0.731
- relative viability (NCI-H2009; first compound 0.8 µM): 0.798
- relative viability (NCI-H2009; first compound 2.53 µM): 0.662
- relative viability (NCI-H2009; first compound 8 µM): 0.765
- relative viability (NCI-H1792; first compound 0.08 µM): 0.384
- relative viability (NCI-H1792; first compound 0.253 µM): 0.352
- relative viability (NCI-H1792; first compound 0.8 µM): 0.341
- relative viability (NCI-H1792; first compound 2.53 µM): 0.321
- relative viability (NCI-H1792; first compound 8 µM): 0.286
- relative viability (NCI-H1437; first compound 0.08 µM): 0.618
- relative viability (NCI-H1437; first compound 0.253 µM): 0.785
- relative viability (NCI-H1437; first compound 0.8 µM): 0.684
- relative viability (NCI-H1437; first compound 2.53 µM): 0.615
- relative viability (NCI-H1437; first compound 8 µM): 0.541
- relative viability (HARA; first compound 0.08 µM): 1.13
- relative viability (HARA; first compound 0.253 µM): 0.711
- relative viability (HARA; first compound 0.8 µM): 0.774
- relative viability (HARA; first compound 2.53 µM): 0.629
- relative viability (HARA; first compound 8 µM): 0.777
- relative viability (COR-L 105; first compound 0.08 µM): 0.546
- relative viability (COR-L 105; first compound 0.253 µM): 0.665
- relative viability (COR-L 105; first compound 0.8 µM): 0.468
- relative viability (COR-L 105; first compound 2.53 µM): 0.682
- relative viability (COR-L 105; first compound 8 µM): 0.78
- relative viability (NCI-H727; first compound 0.08 µM): 0.64
- relative viability (NCI-H727; first compound 0.253 µM): 0.679
- relative viability (NCI-H727; first compound 2.53 µM): 0.615
- relative viability (NCI-H727; first compound 8 µM): 0.68
- relative viability (HOP-62; first compound 0.08 µM): 0.374
- relative viability (HOP-62; first compound 0.253 µM): 0.52
- relative viability (HOP-62; first compound 0.8 µM): 0.543
- relative viability (HOP-62; first compound 2.53 µM): 0.49
- relative viability (HOP-62; first compound 8 µM): 0.576
- relative viability (HCC-366; first compound 0.08 µM): 0.421
- relative viability (HCC-366; first compound 0.253 µM): 0.507
- relative viability (HCC-366; first compound 0.8 µM): 0.406
- relative viability (HCC-366; first compound 2.53 µM): 0.483
- relative viability (HCC-366; first compound 8 µM): 0.357
